Reference: US9617256B2 (priority 2007, dated 2017)
≈ marks a conversion by molar mass, not a printed value. Where two headings read alike, the source gives them in different places.

What was measured:
AECO001 (ATCC25922) = assay: MIC broth microdilution, AECO001; format: cell-based, E. coli; conditions: for MIC: Escherichia coli; for Ratio of MICs on AECO001 [Cpd (A = —CHCH3NH2)/Cpd (A = —C(CH3)2NH2)]: MIC of paired compound with A = —CHCH3NH2 divided by MIC of compound with A = —C(CH3)2NH2, n=2 data, pairs identical except for the A moiety
Method in brief: (§1)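 MICs come from broth microdilution in cation-adjusted Mueller-Hinton broth, final inoculum 3×10^5–7×10^5 CFU/mL, 18-24 hours at 35° C. Levofloxacin and QC strains served as assay controls.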

[1] = system: AECO063 (ATCC25922 bearing an acrAB mutation); assay: microbe, parasite or virus in culture; format: cell-based, E. coli; conditions: Escherichia coli, ATCC25922, read-out: MIC AECO063
Method in brief: as §1

APAE001 (ATCC27853) = assay: MIC broth microdilution, APAE001; format: cell-based, P. aeruginosa; conditions: Pseudomonas aeruginosa, ATCC27853, read-out: MIC APAE001, APAE001 (ATCC27853)
Method in brief: as §1

[2] = system: APAE006 (strain of P. aeruginosa in which all efflux pumps are inactivated); assay: microbe, parasite or virus in culture; format: cell-based; conditions: Pseudomonas aeruginosa, read-out: MIC APAE006, APAE006, all efflux pumps inactivated
Method in brief: (§2)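 Minimum inhibitory concentrations followed CLSI broth microdilution guidelines: cation-adjusted Mueller-Hinton broth, 2-fold serial drug dilutions, final inoculum 3×10^5–7×10^5 CFU/mL, ambient air at 35° C. for 18-24 hours. Quality-control strains and levofloxacin monitored performance.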

[3] = system: APAE006 in the presence of 8 micrograms per milliliter of polymyxin B nonapeptide; format: cell-based, P. aeruginosa; conditions: APAE006 with 8 micrograms per milliliter polymyxin B nonapeptide
Method in brief: as §2

[4] = system: AABA1060 (clinical isolate of Acinetobacter baumannii); assay: MIC broth microdilution, AABA1060; format: cell-based; conditions: Acinetobacter baumannii, read-out: MIC AABA1060
Method in brief: as §1

[5] = system: ASAU001 (laboratory strain of S. aureus, ATCC29213); assay: MIC broth microdilution, ASAU001; format: cell-based; conditions: Staphylococcus aureus, ATCC29213, read-out: MIC ASAU001
Method in brief: as §1

[6] = ATCC25922, read-out: MIC AECO001
[7] = ATCC25922, read-out: MIC AECO001 HSA AGP

SMILES | MIC (AECO001 (ATCC25922); [6]) [µg/mL] | MIC (AECO001 (ATCC25922); [7]) [µg/mL] | MIC [1] [µg/mL] | MIC (APAE001 (ATCC27853)) [µg/mL] | MIC [2] [µg/mL] | MIC APAE006 + PMBN [3] | MIC [4] [µg/mL] | MIC [5] [µg/mL] | Ratio of MICs on AECO001 [Cpd (A = —CHCH3NH2)/Cpd (A = —C(CH3)2NH2)] (AECO001 (ATCC25922))
CC(C)(N)[C@H](NC(=O)c1ccc(/C=C/C#CC2CC2)cc1)C(=O)NO [Example 114-18] | < 2 | 2 to 16 (≈ 5.86 to 46.9 µM) | < 2 | < 2 | < 2 | A (MIC's of 2.0 μg/mL or less = A) | < 2 | 16 to 64 (≈ 46.9 to 187 µM) | –
CC(C)C#C/C=C/c1ccc(C(=O)N[C@H](C(=O)NO)C(C)(C)N)cc1 [Example 114-19] | < 2 | 2 to 16 (≈ 5.82 to 46.6 µM) | < 2 | < 2 | < 2 | A (MIC's of 2.0 μg/mL or less = A) | < 2 | 2 to 16 (≈ 5.82 to 46.6 µM) | –
CC(C)(N)[C@H](NC(=O)c1ccc(/C=C/C#CC2CCCC2)cc1)C(=O)NO [Example 114-20] | < 2 | 2 to 16 (≈ 5.41 to 43.3 µM) | < 2 | 2 to 16 (≈ 5.41 to 43.3 µM) | < 2 | A (MIC's of 2.0 μg/mL or less = A) | < 2 | 2 to 16 (≈ 5.41 to 43.3 µM) | –
C[C@@H](N)[C@H](NC(=O)c1ccc(C#Cc2ccc(CN3CCC(F)CC3)cc2)cc1)C(=O)NO [Example 115-1, N-((2S,3R)-3-amino-1-(hydroxyamino)-1-oxobutan-2-yl)-4-((4-((4-fluoropiperidin-1-yl)methyl)phenyl)ethynyl)benzamide] | < 2 | 2 to 16 (≈ 4.42 to 35.4 µM) | < 2 | 2 to 16 (≈ 4.42 to 35.4 µM) | < 2 | A (MIC's of 2.0 μg/mL or less = A) | 2 to 16 (≈ 4.42 to 35.4 µM) | > 64 | –
C[C@@H](O)[C@H](NC(=O)c1ccc(C#Cc2ccc(CNCC(F)F)cc2)cc1)C(=O)NO [Example 119-4] | < 2 | < 2 | < 2 | < 2 | < 2 | A (MIC's of 2.0 μg/mL or less = A) | 2 to 16 (≈ 4.64 to 37.1 µM) | 16 to 64 (≈ 37.1 to 148 µM) | –
CC(C)(O)[C@H](NC(=O)c1ccc(C#Cc2ccc(CNCC(F)F)cc2)cc1)C(=O)NO [Example 119-5] | < 2 | < 2 | < 2 | < 2 | < 2 | A (MIC's of 2.0 μg/mL or less = A) | < 2 | 16 to 64 (≈ 35.9 to 144 µM) | –
CC(C)(N)[C@H](NC(=O)c1ccc(C#Cc2ccc(CNC3CC3)cc2)cc1)C(=O)NO [Example 121-1, N—((S)-2-Amino-1-hydroxycarbamoyl-2-methyl-propyl)-4-(4-cyclopropylaminomethyl-phenylethynyl)-benzamide] | < 2 | < 2 | < 2 | < 2 | < 2 | A (MIC's of 2.0 μg/mL or less = A) | 2 to 16 (≈ 4.76 to 38 µM) | 16 to 64 (≈ 38 to 152 µM) | 4.0
COCCNCc1ccc(C#Cc2ccc(C(=O)N[C@H](C(=O)NO)[C@@H](C)N)cc2)cc1 [Example 122-1, N-((1S,2R)-2-Amino-1-hydroxycarbamoyl-propyl)-4-{4-[(2-methoxy-ethylamino)-methyl]-phenylethynyl}-benzamide] | 2 to 16 (≈ 4.71 to 37.7 µM) | 2 to 16 (≈ 4.71 to 37.7 µM) | < 2 | 2 to 16 (≈ 4.71 to 37.7 µM) | < 2 | A (MIC's of 2.0 μg/mL or less = A) | 16 to 64 (≈ 37.7 to 151 µM) | 16 to 64 (≈ 37.7 to 151 µM) | –
CC(C)(C)CNCc1ccc(C#Cc2ccc(C(=O)N[C@H](C(=O)NO)C(C)(C)N)cc2)cc1 [Example 122-2] | < 2 | 2 to 16 (≈ 4.44 to 35.5 µM) | < 2 | < 2 | < 2 | A (MIC's of 2.0 μg/mL or less = A) | 2 to 16 (≈ 4.44 to 35.5 µM) | 16 to 64 (≈ 35.5 to 142 µM) | –
CC(C)(N)[C@H](NC(=O)c1ccc(C#Cc2ccc(CNCC(F)F)cc2)cc1)C(=O)NO [Example 122-3] | < 2 | < 2 | < 2 | < 2 | < 2 | A (MIC's of 2.0 μg/mL or less = A) | < 2 | 16 to 64 (≈ 36 to 144 µM) | –
CC(C)(N)[C@H](NC(=O)c1ccc(C#Cc2ccc(CN3CCS(=O)(=O)CC3)cc2)cc1)C(=O)NO [Example 122-4] | < 2 | 2 to 16 (≈ 4.01 to 32.1 µM) | < 2 | < 2 | < 2 | A (MIC's of 2.0 μg/mL or less = A) | < 2 | 16 to 64 (≈ 32.1 to 128 µM) | –
CC(C)(N)[C@H](NC(=O)c1ccc(C#Cc2ccc(CNCCF)cc2)cc1)C(=O)NO [Example 122-6] | < 2 | < 2 | < 2 | < 2 | < 2 | A (MIC's of 2.0 μg/mL or less = A) | 2 to 16 (≈ 4.69 to 37.5 µM) | 16 to 64 (≈ 37.5 to 150 µM) | 2.1
